Reference: the supplement of paper PMC9663587

Tests used:
Experiment in all cases: GRmax, 72 h; higher = less effect;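 further: breast cell lines in 384-well plates, nine doses across a 10^4 range, Dye Drop imaging of viable cells vs DMSO and time-zero plates, GR 0 means no net growth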
AU565 = system: AU565
CAL51 = system: CAL51
CAMA1 = system: CAMA1
HCC1395 = system: HCC1395
MDAMB436 = system: MDAMB436
MDAMB468 = system: MDAMB468
PDXHCI002 = system: PDXHCI002
SUM1315 = system: SUM1315
T47D = system: T47D
UACC812 = system: UACC812
ZR7530 = system: ZR7530

SMILES	GRmax, 72 h (AU565)	GRmax, 72 h (CAL51)	GRmax, 72 h (CAMA1)	GRmax, 72 h (HCC1395)	GRmax, 72 h (MDAMB436)	GRmax, 72 h (MDAMB468)	GRmax, 72 h (PDXHCI002)	GRmax, 72 h (SUM1315)	GRmax, 72 h (T47D)	GRmax, 72 h (UACC812)	GRmax, 72 h (ZR7530)
CN(C)C/C=C/C(=O)Nc1ccc(C(=O)N2CCC[C@@H](Nc3ncc(Cl)c(-c4c[nH]c5ccccc45)n3)C2)cc1 [THZ531] (max 1 µM)	-0.527 GR	0.559 GR	-0.398 GR	-0.587 GR	0.018 GR	-0.153 GR	-0.198 GR	-0.602 GR	-0.141 GR	0.556 GR	-0.732 GR
CN(C)C/C=C/C(=O)Nc1ccc(C(=O)Nc2cccc(Nc3cc(-c4c[nH]c5ccccc45)ncn3)c2)cc1 [THZ-P1-2] (max 10 µM)	-0.648 GR	0.751 GR	-0.626 GR	-0.908 GR	-0.278 GR	-0.523 GR	0.721 GR	-0.299 GR	-0.453 GR	-0.371 GR	-0.964 GR
Cc1nc(-c2cn3c(n2)-c2ccc(-c4cnn(C(C)(C)C(N)=O)c4)cc2OCC3)n(C(C)C)n1 [Taselisib/GDC0032] (max 10 µM)	-0.531 GR	-0.413 GR	-0.152 GR	-0.0177 GR	0.243 GR	0.0046 GR	-0.137 GR	0.0942 GR	-0.105 GR	-0.636 GR	-0.478 GR
O=C1NC(=O)[C@@H](c2cn3c4c(cccc24)CCC3)[C@@H]1c1c[nH]c2ccccc12 [Tivantinib/ARQ197] (max 10 µM)	-0.514 GR	-0.282 GR	-0.566 GR	-0.483 GR	-0.271 GR	-0.455 GR	-0.487 GR	-0.43 GR	-0.154 GR	-0.84 GR	-0.539 GR
Nc1ccc(-c2ccc3ncc4ccc(=O)n(-c5cccc(C(F)(F)F)c5)c4c3c2)cn1 [Torin2] (max 1 µM)	-0.39 GR	-0.152 GR	-0.147 GR	-0.142 GR	0.123 GR	-0.0415 GR	-0.102 GR	-0.0903 GR	0.0099 GR	-0.817 GR	-0.0202 GR
CC[C@@H]1C(=O)N(C)c2cnc(Nc3ccc(C(=O)N[C@H]4CC[C@H](N5CCN(CC6CC6)CC5)CC4)cc3OC)nc2N1C(C)C [Volasertib/BI6727] (max 1 µM)	-0.473 GR	-0.337 GR	-0.296 GR	-0.296 GR	-0.179 GR	-0.449 GR	-0.589 GR	-0.388 GR	-0.159 GR	-0.496 GR	-0.42 GR
O=C(CCCCCCC(=O)Nc1ccccc1)NO [Vorinostat] (max 10 µM)	-0.491 GR	-0.0506 GR	-0.49 GR	-0.0589 GR	0.033 GR	-0.119 GR	-0.583 GR	-0.0668 GR	-0.157 GR	-0.487 GR	-0.318 GR
C=CC(=O)Nc1ccc(C(=O)Nc2[nH]nc3c2CN(C(=O)N[C@H](CN(C)C)c2ccccc2)C3(C)C)cc1 [YKL-5-124] (max 10 µM)	-0.563 GR	0.0082 GR	-0.604 GR	-0.267 GR	-0.0111 GR	-0.493 GR	-0.129 GR	-0.406 GR	-0.146 GR	-0.403 GR	-0.625 GR
CN1CCN(C(=O)c2ccc3cc(CCNc4ncnc5ccc(C#N)cc45)ccc3c2)CC1 [senexin b] (max 10 µM)	0.76 GR	0.755 GR	0.229 GR	0.307 GR	0.429 GR	0.132 GR	1.06 GR	0.656 GR	0.213 GR	0.248 GR	0.0824 GR
